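Results reflect a 48-hour exposure of cells in 96-well plates to compound at five concentrations. Abbreviation: GI50, concentration required for 50% inhibition of growth. TGI: concentration producing complete growth inhibition.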
How the values were obtained:
Experiment in all cases: NCI-60 cell line screen, 48 h
OVCAR-4 ovarian = tested on: OVCAR-4 ovarian
UO-31 renal = tested on: UO-31 renal
MALME-3M melanoma = tested on: MALME-3M melanoma
SNB-19 CNS = tested on: SNB-19 CNS
SF-268 CNS = tested on: SF-268 CNS
NCI-H522 lung = tested on: NCI-H522 lung
HCT-15 colon = tested on: HCT-15 colon
SR leukemia = tested on: SR leukemia
MCF7 breast = tested on: MCF7 breast
A498 renal = tested on: A498 renal
ACHN renal = tested on: ACHN renal
SK-OV-3 ovarian = tested on: SK-OV-3 ovarian
SNB-75 CNS = tested on: SNB-75 CNS
NCI/ADR-RES ovarian = tested on: NCI/ADR-RES ovarian
NCI-H23 lung = tested on: NCI-H23 lung
LOX IMVI melanoma = tested on: LOX IMVI melanoma
BT-549 breast = tested on: BT-549 breast
MOLT-4 leukemia = tested on: MOLT-4 leukemia
RPMI-8226 leukemia = tested on: RPMI-8226 leukemia
SW-620 colon = tested on: SW-620 colon
NCI-H460 lung = tested on: NCI-H460 lung
HL-60(TB) leukemia = tested on: HL-60(TB) leukemia
A549 NSCLC = tested on: A549 NSCLC
NCI-H226 lung = tested on: NCI-H226 lung
HCT-116 colon = tested on: HCT-116 colon
786-0 renal = tested on: 786-0 renal
UACC-62 melanoma = tested on: UACC-62 melanoma
HT29 colon = tested on: HT29 colon
OVCAR-5 ovarian = tested on: OVCAR-5 ovarian
HS 578T breast = tested on: HS 578T breast
EKVX NSCLC = tested on: EKVX NSCLC
SK-MEL-5 melanoma = tested on: SK-MEL-5 melanoma
MDA-MB-231 breast = tested on: MDA-MB-231 breast
U251 CNS = tested on: U251 CNS
SK-MEL-2 melanoma = tested on: SK-MEL-2 melanoma
HOP-92 NSCLC = tested on: HOP-92 NSCLC
IGROV1 ovarian = tested on: IGROV1 ovarian
CCRF-CEM leukemia = tested on: CCRF-CEM leukemia
CAKI-1 renal = tested on: CAKI-1 renal
DU-145 prostate = tested on: DU-145 prostate
TK-10 renal = tested on: TK-10 renal
HCC-2998 colon = tested on: HCC-2998 colon
T-47D breast = tested on: T-47D breast
SK-MEL-28 melanoma = tested on: SK-MEL-28 melanoma
COLO 205 colon = tested on: COLO 205 colon
OVCAR-3 ovarian = tested on: OVCAR-3 ovarian
KM12 colon = tested on: KM12 colon
SF-539 CNS = tested on: SF-539 CNS
OVCAR-8 ovarian = tested on: OVCAR-8 ovarian
MDA-MB-435 = tested on: MDA-MB-435
HOP-62 NSCLC = tested on: HOP-62 NSCLC
M14 melanoma = tested on: M14 melanoma
SN12C renal = tested on: SN12C renal
K-562 leukemia = tested on: K-562 leukemia

With COc1ccccc1OCC(=O)Nc1sc2c(c1C(N)=O)CCC2 the GI50 (OVCAR-4 ovarian) was greater than 100 µM, the TGI (OVCAR-4 ovarian) was greater than 100 µM and the GI50 (UO-31 renal) was greater than 100 µM. For the same molecule, the TGI (UO-31 renal) was greater than 100 µM, the GI50 (MALME-3M melanoma) was greater than 100 µM and the TGI (MALME-3M melanoma) was greater than 100 µM. The GI50 (SNB-19 CNS) was greater than 100 µM, the TGI (SNB-19 CNS) was greater than 100 µM and the GI50 (SF-268 CNS) was greater than 100 µM. The TGI (SF-268 CNS) was greater than 100 µM, the GI50 (NCI-H522 lung) was greater than 100 µM and the TGI (NCI-H522 lung) was greater than 100 µM. The GI50 (HCT-15 colon) was 33.4 µM, the TGI (HCT-15 colon) was greater than 100 µM and the GI50 (SR leukemia) was greater than 100 µM. For the same molecule, the TGI (SR leukemia) was greater than 100 µM, the GI50 (MCF7 breast) was greater than 100 µM and the TGI (MCF7 breast) was greater than 100 µM. The GI50 (A498 renal) was greater than 100 µM, the TGI (A498 renal) was greater than 100 µM and the GI50 (ACHN renal) was greater than 100 µM. It also gave a TGI (ACHN renal) greater than 100 µM, a GI50 (SK-OV-3 ovarian) greater than 100 µM and a TGI (SK-OV-3 ovarian) greater than 100 µM. For the same molecule, the GI50 (SNB-75 CNS) was greater than 100 µM, the TGI (SNB-75 CNS) was greater than 100 µM and the GI50 (NCI/ADR-RES ovarian) was greater than 100 µM. It also gave a TGI (NCI/ADR-RES ovarian) greater than 100 µM, a GI50 (NCI-H23 lung) greater than 100 µM and a TGI (NCI-H23 lung) greater than 100 µM. The GI50 (LOX IMVI melanoma) was greater than 100 µM, the TGI (LOX IMVI melanoma) was greater than 100 µM and the GI50 (BT-549 breast) was greater than 100 µM. It also gave a TGI (BT-549 breast) greater than 100 µM, a GI50 (MOLT-4 leukemia) greater than 100 µM and a TGI (MOLT-4 leukemia) greater than 100 µM. It also gave a GI50 (RPMI-8226 leukemia) greater than 100 µM, a TGI (RPMI-8226 leukemia) greater than 100 µM and a GI50 (SW-620 colon) greater than 100 µM. The TGI (SW-620 colon) was greater than 100 µM, the GI50 (NCI-H460 lung) was greater than 100 µM and the TGI (NCI-H460 lung) was greater than 100 µM. It also gave a GI50 (HL-60(TB) leukemia) greater than 100 µM, a TGI (HL-60(TB) leukemia) greater than 100 µM and a GI50 (A549 NSCLC) of 32.4 µM. It also gave a TGI (A549 NSCLC) greater than 100 µM, a GI50 (NCI-H226 lung) of 44.3 µM and a TGI (NCI-H226 lung) greater than 100 µM. It also gave a GI50 (HCT-116 colon) greater than 100 µM, a TGI (HCT-116 colon) greater than 100 µM and a GI50 (786-0 renal) greater than 100 µM. For the same molecule, the TGI (786-0 renal) was greater than 100 µM, the GI50 (UACC-62 melanoma) was 38.1 µM and the TGI (UACC-62 melanoma) was greater than 100 µM. For the same molecule, the GI50 (HT29 colon) was greater than 100 µM, the TGI (HT29 colon) was greater than 100 µM and the GI50 (OVCAR-5 ovarian) was greater than 100 µM. The TGI (OVCAR-5 ovarian) was greater than 100 µM, the GI50 (HS 578T breast) was greater than 100 µM and the TGI (HS 578T breast) was greater than 100 µM. For the same molecule, the GI50 (EKVX NSCLC) was greater than 100 µM, the TGI (EKVX NSCLC) was greater than 100 µM and the GI50 (SK-MEL-5 melanoma) was 70.6 µM. It also gave a TGI (SK-MEL-5 melanoma) greater than 100 µM, a GI50 (MDA-MB-231 breast) greater than 100 µM and a TGI (MDA-MB-231 breast) greater than 100 µM. It also gave a GI50 (U251 CNS) greater than 100 µM, a TGI (U251 CNS) greater than 100 µM and a TGI (SK-MEL-2 melanoma) of 68 µM. For the same molecule, the GI50 (HOP-92 NSCLC) was greater than 100 µM, the TGI (HOP-92 NSCLC) was greater than 100 µM and the GI50 (IGROV1 ovarian) was greater than 100 µM. It also gave a TGI (IGROV1 ovarian) greater than 100 µM, a GI50 (CCRF-CEM leukemia) greater than 100 µM and a TGI (CCRF-CEM leukemia) greater than 100 µM. It also gave a GI50 (CAKI-1 renal) greater than 100 µM, a TGI (CAKI-1 renal) greater than 100 µM and a GI50 (DU-145 prostate) greater than 100 µM. For the same molecule, the TGI (DU-145 prostate) was greater than 100 µM, the GI50 (TK-10 renal) was greater than 100 µM and the TGI (TK-10 renal) was greater than 100 µM. The GI50 (HCC-2998 colon) was greater than 100 µM, the TGI (HCC-2998 colon) was greater than 100 µM and the GI50 (T-47D breast) was greater than 100 µM. For the same molecule, the TGI (T-47D breast) was greater than 100 µM, the GI50 (SK-MEL-28 melanoma) was greater than 100 µM and the TGI (SK-MEL-28 melanoma) was greater than 100 µM. For the same molecule, the GI50 (COLO 205 colon) was greater than 100 µM, the TGI (COLO 205 colon) was greater than 100 µM and the GI50 (OVCAR-3 ovarian) was greater than 100 µM. It also gave a TGI (OVCAR-3 ovarian) greater than 100 µM, a GI50 (KM12 colon) greater than 100 µM and a TGI (KM12 colon) greater than 100 µM. It also gave a GI50 (SF-539 CNS) greater than 100 µM, a TGI (SF-539 CNS) greater than 100 µM and a GI50 (OVCAR-8 ovarian) of 12.7 µM. The TGI (OVCAR-8 ovarian) was greater than 100 µM, the GI50 (MDA-MB-435) was greater than 100 µM and the TGI (MDA-MB-435) was greater than 100 µM. The GI50 (HOP-62 NSCLC) was greater than 100 µM, the TGI (HOP-62 NSCLC) was greater than 100 µM and the GI50 (M14 melanoma) was greater than 100 µM. It also gave a TGI (M14 melanoma) greater than 100 µM, a GI50 (SN12C renal) greater than 100 µM and a TGI (SN12C renal) greater than 100 µM. It also gave a GI50 (K-562 leukemia) greater than 100 µM and a TGI (K-562 leukemia) greater than 100 µM.

From PubChem BioAssay (NCI)
